Experimental data reported in patent US20080200538A1, “Inhibition of Monocyte Survival, Differentiation, or Proliferation” (The Ohio State University Research Foundation, priority 2005, published 2008).

How the values were obtained:
[1] = system: THP-1 cells; experiment: Cell survival and apoptosis by calcein AM/PI staining; assay type: cell-based, human
Description: FIG. 2. Apigenin induces cell death in monocytic leukemia cells. THP-1 and U937 leukemia cells were treated for various lengths of time with 50 μM apigenin or left untreated (NT) and stained with calcein AM and PI as described in Material and Methods to evaluate the percentage of cell survival. (A) THP cells after 12 h cells treated with 50 μM apigenin or with DMSO (NT). (B) The percentage of cell survival represented by means ±SEM (N=3).
(§1) FIG. 4. Caspase-3 activation is required for apigenin-induced apoptosis. THP-1 cells were treated for 12 h with 50 μM apigenin alone or pretreated with 20 μM DEVD-FMK for 1 h prior to the addition of apigenin. (A) Cells were then stained with calcein AM and 24 PI and the percentage of apoptotic cells was determined. (B) Lysates from cells treated as described above were used to determined caspase-3 activity by the DEVD-AFC assay. All data represents means ±SEM (N=5).
(§2) FIG. 7. Apigenin induced p38 activation is not required for apoptosis. A. Cells were pretreated for 1 h prior to addition of 50 μM apigenin or DMSO (−) with 10 or 25 μM concentrations of SB203580 or DMSO (−) for 12 h. The percentage of apoptotic cells was determined by calcein AM with PI stained cells. Data represents means ±SEM (N=5 p>0.05). B. Lysates from the same treatments were used to determined caspase-3 activity by the DEVD-AFC assay. Data represents means ±SEM (N=5 p>0.05).
To investigate apoptosis, cells were plated at a density of 1×10^6 cells/well. After treatment, cells were collected and washed in PBS. Cells were then incubated in RPMI (no phenol red) and 1 μg/ml calcein AM for 30 min and 5×10−2 ng/ml propidium iodide (PI) for 5 min. Cells were washed twice and resuspended in PBS. Cells were viewed using a fluorescent microscope (Olympus, Melville, N.Y.). At least 200 cells were counted. Cells calcein AM positive (green) in the absence of PI (red) were considered alive while cells undergoing apoptosis are green with red. Number of green cells or green with red cells was counted over total number of cells (green alone and green with red) to express cell survival or apoptotic cell percentage respectively.

[2] = system: caspase-3; experiment: Caspase-3 activity, DEVD-AFC assay, THP-1 lysates; assay type: cell-based, human
Description: FIG. 3. Apigenin induces caspase activation in monocytic leukemia. THP-1 (top) and U937 (bottom) leukemia cells were treated for various lengths of time with 50 μM apigenin or DMSO (NT). (A and C) Caspase-9 activity was determined by the LEHDAFC assay. (B and D) Caspase-3 activity was determined by the DEVD-AFC assay. Data represents means ±SEM (N=3).
as §1, §2
For measurements of caspase activity, cells were plated at a density of 1.5×10^6 cells/well. After treatment, cells extracts were prepared as previously described (Doseff, A. I., Baker J. H., Bourgeois T. A. and Wewers M. D. (2003) Interleukin-4-induced zpoptosis entails caspase activation and suppression of extracellular signal-regulated kinase phosphorylation. Am. J. Resp. Cell Mol. Biol., 29, 367-374). […] Levels of released AFC were measured using Cytofluor 400 fluorimeter (Filters: excitation 400 nm, emission 508 nm; Perspective Co., Framingham, Mass.).

[3] = system: p38; experiment: Western blot of p38 phosphorylation in THP-1 cells; assay type: cell-based, human; details: THP-1, 10 or 25 μM SB203580 1 h prior to 50 μM apigenin for 3 h
Description: A. THP-1 cells were treated with 50 μM apigenin for various lengths of time. Lysates were separated by SDS-PAGE, transferred and analyzed by immunoblots with anti-phospho-p38 (pp 38) and anti-total-p38 antibodies. B. THP-1 cells were treated for 6 hr with 50 μM apigenin alone (lane 2), treated with the apigenin diluent (lane 1), pretreatred with 10 or 25 μM SB203580 for 1 hr prior to the addition of apigenin (lanes 3 and 4) or with the SB203580 inhibitor alone (lanes 5 and 6).
Extracts from 3×10^6 cells were prepared by incubating cells for 30 min on ice in lysis buffer (50 mM Tris, 10 mM EDTA 0.5% NP-40, 10 mM Na-glycerophosphate, 5 mM Na-pyrophosphate, 50 mM NaF, 1 mM orthovanadate, 1 mM DTT, 0.1 mM PMSF, 2 μg/ml of protease inhibitors: chymostatin, pepstatin, antipain, and leupeptin). Cell lysates were centrifuged (14,000×g for 10 min at 4° C.) and the supernatants were stored for at −70° C. for future analysis. Equal amounts of protein were loaded and separated by SDS-PAGE, transferred onto nitrocellulose membranes and probed with antibodies of interest followed by horseradish peroxidase conjugated secondary antibody and visualized by enhanced chemiluminescence (Amersham, Arlington Heights, Ill.). […]

[4] = system: Akt; experiment: Western blot of Akt phosphorylation and total Akt in THP-1 cells; assay type: cell-based, human; details: THP-1, 10 or 25 μM SB203580 1 h prior to 50 μM apigenin for 3 h
Description: FIG. 5. Apigenin affects Akt phosphorylation. THP-1 cells were treated with 50 μM apigenin for different lengths of time. Lysates were separated by SDS-PAGE, transferred and immunoblotted with anti-phospho-Akt (pSer 473), anti-phospho-Akt (pThr 308), total Akt, and â-tubulin antibodies.
FIG. 6. Apigenin induces the activation of p38 and inactivation of Akt. A. THP-1 cells were treated with 50 μM apigenin for various lengths of time. Lysates were separated by SDS-PAGE, transferred and analyzed by immunoblots with anti-phospho-p38 (pp 38) and anti-total-p38 antibodies. B. […] Lysates were analyzed by immunoblotting with anti-phospho-Akt (pSer 473), anti-phospho-p38 (p-p38), and anti-total-p38 antibodies.
Extracts from 3×10^6 cells were prepared by incubating cells for 30 min on ice in lysis buffer (50 mM Tris, 10 mM EDTA 0.5% NP-40, 10 mM Na-glycerophosphate, 5 mM Na-pyrophosphate, 50 mM NaF, 1 mM orthovanadate, 1 mM DTT, 0.1 mM PMSF, 2 μg/ml of protease inhibitors: chymostatin, pepstatin, antipain, and leupeptin). Cell lysates were centrifuged (14,000×g for 10 min at 4° C.) and the supernatants were stored for at −70° C. for future analysis. Equal amounts of protein were loaded and separated by SDS-PAGE, transferred onto nitrocellulose membranes and probed with antibodies of interest followed by horseradish peroxidase conjugated secondary antibody and visualized by enhanced chemiluminescence (Amersham, Arlington Heights, Ill.). Phospho-Ser473-Akt, phospho-Thr308-Alt, total AKT, phospho-p38 and total p38 antibodies were obtained from Cell Signaling (Boston, Mass.). â-tubulin antibody was obtained from Upstate (Charlottesville, Va.).

[5] = system: MCF-7 cells; experiment: Cell viability assay (CellTiter 96 / MTT, A490); assay type: cell-based; details: MCF-7, up to 500 μM naringenin, 24 h; reduced by
Description: (§3) FIG. 1. Effect of apigenin and naringenin in cell survival of cancer cells. (A) Structure of the flavonoids apigenin and naringenin. (B) THP-1, U937, A549, and MCF-7 cells were treated with various doses of apigenin or naringenin for 24 h. After the treatment, the percentage of cell proliferation was calculated as the ratio of treated cells to control cells as determined by the MTT method (A490). Data represents means ±SEM (N=9). […] Cells were plated at a density of 2×10^4 cells/well into 96-well plates and treated with flavonoids at indicated concentrations for 24 h. Absorbance at 490 nm (A490) was recorded using an ELISA plate reader (Bio-Tek ELx800, KC Junior, Winooski, Vt.).

[6] = system: A549 cells; experiment: Cell viability assay (CellTiter 96 / MTT, A490); assay type: cell-based; details: A549, up to 500 μM naringenin, 24 h; reduced by
Description: as §3

[7] = system: THP-1 cells; experiment: Cell viability assay (CellTiter 96 / MTT, A490); assay type: cell-based, human; details: THP-1, 500 μM naringenin, 24 h; reduced to
Description: as §3

[8] = system: U937 cells; experiment: Cell viability assay (CellTiter 96 / MTT, A490); assay type: cell-based, human; details: U937, 500 μM naringenin, 24 h; reduced to
Description: as §3

[9] = system: THP-1 cells
[10] = THP-1, 20 μM DEVD-FMK 1 h prior to 50 μM apigenin for 12 h

C[S+]([O-])c1ccc(-c2nc(-c3ccncc3)c(-c3ccc(F)cc3)[nH]2)cc1 (centres unmarked) [SB203580, reference compound]
number of apoptotic cells induced by apigenin ([1]; THP-1, SB203580 (10 or 25 μM) 1 h prior to 50 μM apigenin, 12 h, vs apigenin alone, P>0.05): did not result in a reduction
caspase-3 activity ([2]; THP-1, SB203580 and 50 μM apigenin vs apigenin alone, P>0.05): similar
apigenin-induced p38 phosphorylation [3]: significantly reduced
Akt phosphorylation at Ser473 [4]: increase

O=C1C[C@@H](c2ccc(O)cc2)Oc2cc(O)cc(O)c21 [naringenin, reference compound]
reduction of cell proliferation [5]: 20%
reduction of cell proliferation [6]: 20%
cell proliferation (ratio of treated to control cells) [7]: 60%
cell proliferation (ratio of treated to control cells) [8]: 60%
conversion to another chemical entity in treated cells [9]: neither one of these two compounds is significantly converted

DEVD-FMK: caspase-3 inhibitor obtained from Enzyme System Products [reference compound]
apoptotic cells [1, 10]: < 10%
effect on apigenin-induced caspase-3 activity [2, 10]: inhibited the apigenin-induced activation of caspase-3 to the levels observed in untreated cells
